The values below come from US6919309B2, “Methods and compositions for inhibiting angiogenesis” (Northwestern University, priority 1997, dated 2005).

Assay [1] has as its system human dermal microvascular endothelial cells. The assay is described as follows: Endothelial cell migration assay (modified Boyden chamber), human dermal microvascular endothelial cells. It is filed as cell-based. The conditions noted are these: VEGF 200 pg/ml gradient; FIG. 7. As to the method:
(§1) The cells were plated on gelatinized Nucleopore membranes (5 μm pores for bovine capillary cells and 8 μm pores for other cells) in an inverted modified Boyden chamber. After two hours, the chamber was reinverted and test substances added to the top wells of each. Specifically, populations were exposed to either culture medium alone (control), 10 ng/ml bFGF, 2 nM PEDF (full length PEDF), or both 10 ng/ml bFGF (basic fibroblast growth factor) and 10 nM PEDF. The cells were then permitted to migrate for 3-4 hours. Following this, the membranes were fixed and stained, and the number of cells that had migrated were counted.
Additional truncated peptides derived from PEDF were tested for efficacy in the endothelial cell migration assay using human dermal microvascular endothelial cells (Clonetics, Cell Systems) at passage 9 in a modified Boyden Chamber, as described above, and the results are shown in FIG. 7. In FIG. 7A, the cells were exposed to the gradient of VEGF in the presence of purified recombinant PEDF (rPEDF), bacterially produced PEDF (BH) or PEDF peptides containing only amino acid residues 78-121 (44-mer) and 44-77 (34-mer) referring to SEQ ID NO:1. Neutralizing antibodies were added where shown to verify if the anti-angiogenic effect is specific to PEDF peptides and not due to contamination. Both full length PEDF preparations were used at 25 nM, neutralizing polyclonal antiserum against PEDF was used at 1:200 dilution, recombinant human VEGF (R&D Systems) at 200 pg/ml. In FIG. 7B, the cells were exposed to the gradient of VEGF in the presence of increasing concentrations of 34-mer and 44-mer peptides. The antiserum used in this experiment was not affinity purified, whereas the antiserum used in all other experiments presented herein was affinity purified.

For assay [2], the system named is bovine adrenal capillary endothelial cells. In words: Endothelial cell migration assay (modified Boyden chamber), bovine adrenal capillary endothelial cells. To be noted: migration towards bFGF; FIGS. 4 and 5. It is filed as cell-based. As for the experimental part: as §1
The amount of a given factor necessary to achieve 50% of migration was determined and is reported here as ED50.
In particular, aFGF was employed at a concentration of 50 ng/ml, bFGF was employed at a concentration of 10 ng/ml, IL-8 was employed at a concentration of 40 ng/ml, PDGF was employed at a concentration of 250 pg/ml, and VEGF was employed at a concentration of 100 pg/ml.
In studies aimed at identifying antiangiogenic factors in the eye that might be regulated by the retinoblastoma tumor suppressor gene (Rb), media was fractionated where the media was previously conditioned by a retinoblastoma cell line that had been infected with a retrovirus expressing the wild-type Rb gene, WERI-Rb-27R. (Xu et al., 1991, Cancer Res. 51:4481). […] PEDF was purified from WERI-Rb-27R serum-free conditioned media by sequential steps consisting of dialysis (molecular mass cutoff, 30 kD) against distilled water, 60 to 95% ammonium sulfate precipitation, step elution from lentil lectin Sepharose 4B (Pharmacia) with 0.5 M α-methyl-D-mannopyranoside, and elution from a HiTrap heparin Sepharose column (Pharmacia) with increasing NACl gradient. (Xu, et al., 1991, Cancer Res. 51:4481). […] Migration assays were performed in quadruplicate for each sample with bovine adrenal capillary endothelial cells or human dermal microvascular endothelial cells (Clonetics, San Diego, Calif.) as described. (Polverini, et al., 1991, Methods Enzymol. 198:440). To combine multiple experiments, background migration (Bkgd) was first subtracted toward vehicle (0.1% bovine serum albumin) and them normalized data by setting maximum migration toward inducer alone to 100%. All experiments were repeated two to five times. Statistics were performed on raw data before normalization with the Student's t test. Standard errors were converted to percentages. […] Single-letter abbreviations for the amino acid residues are as follows: A, Ala; D, Asp; E. Glu; F. Phe; G, Gly; I, Ile; L, Leu; M, Met; P, Pro; Q, Gln; R, Arg; S, Ser; T, Thr; V, Val; X, any amino acid; and Y, Tyr.

For “44 amino acid peptide: PEDF peptide containing only amino acid residues 78-121 of SEQ ID NO:1 (VLLSPLSVATALSALSLGADERTESIIHRALYYDLISSPDIHGT; listed as Homo Sapiens)”, in assay [1], the “anti-angiogenic activity (block of migration towards VEGF)” value is recorded as “not active as an anti-angiogenic agent”.

Regarding “MQALVLLLCIGALLGHSSCQNPASPPEEGSPDPDSTGALVEEEDPFFKVPVNKLAAAVSNFGYDLYRVRSSMSPTTNVLLSPLSVATALSALSLGADERTESIIHRALYYDLISSPDIHGTYKELLDTVTAPQKNLKSASRIVFEKKLRIKSSFVAPLEKSYGTRPRVLTGNPRLDLQEINNWVQAQMKGKLARSTKEIPDEISILLLGVAHFKGQWVTKFDSRKTSLEDFYLDEERTVRVPMMSDPKAVLRYGLDSDLSCKIAQLPLTGSMSIIFFLPLKVTQNLTLIEESLTSEFIHDIDRELKTVQAVLTVPKLKLSYEGEVTKSLQEMKLQSLFDSPDFSKITGKPIKLTQVEHRAGFEWNEDGAGTTPSPGLQPAHLTFPLDYHLNQPFIFVLRDTDTGALLFIGKILDPRGP [34 amino acid peptide]”, the “anti-angiogenic activity (block of migration towards VEGF)” value in assay [1] was “active as an anti-angiogenic agent”.

B1: truncated peptide: trypsin-truncated PEDF missing the approximately 3-5 kDa carboxy-terminal portion (protein, listed as Homo Sapiens)
chain: NPASPPEEGSPDPDSTGALVEEEDPFFKVPVNKLAAAVSNFGYDLYRVRSSMSPTTNVLLSPLSVATALSALSLGADERTESIIHRALYYDLISSPDIHGTYKELLDTVTAPQKNLKSASRIVFEKKLRIKSSFVAPLEKSYGTRPRVLTGNPRLDLQEINNWVQAQMKGKLARSTKEIPDEISILLLGVAHFKGQWVTKFDSRKTSLEDFYLDEERTVRVPMMSDPKAVLRYGLDSDLSCKIAQLPLTGSMSIIFFLPLKVTQNLTLIEESLTSEFIHDIDRELKTVQAVLTVPKLKLSYEGEVTKSLQEMKLQSLFDSPDFSKITGKPIKLTQVEHRAGFEWNEDGAGTTPSPGLQPAHL
With B1, the “potency at inhibiting endothelial cell migration, dose response” value in assay [2] was “similarly potent at inhibiting endothelial cell migration”.
